Drawing on PubChem BioAssay (NCI), this text covers TGI and GI50 for 19 compounds.

Each structure is given as a SMILES string.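 Method: 48-hour compound exposure of cells in 96-well plates, five concentrations, linear interpolation of endpoints. GI50: concentration for 50% inhibition of growth. TGI marks complete inhibition of growth.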

Holding throughout (test): DTP human tumour cell line panel, 48 h
In experiment [1] the test system is HCT-15 colon.
The test system of experiment [2] is TK-10 renal.
Experiment [3] deals with UACC-257 melanoma.
Experiment [4] relates to KM12 colon.
The test system of experiment [5] is SR leukemia.
The test system of experiment [6] is HOP-62 NSCLC.
Experiment [7] has as its system EKVX NSCLC.
Experiment [8] deals with IGROV1 ovarian.
Experiment [9] has as its system CAKI-1 renal.
Experiment [10] relates to SK-OV-3 ovarian.

The term TGI denotes the concentration at which net growth stops. In the case of `O=C1CSC(=S)N1`, the TGI in [1], in experiment [2], in [3], in [4], in [5] and in [6] was greater than 100 µM each time. Moreover, the TGI in experiment [7], in experiment [8] and in experiment [9] was greater than 100 µM throughout.
As to `Cc1ccc2c(c1)C(=O)N(N(C)C)CC(=O)N2`, the TGI in experiment [1], in [2], in [3], in experiment [4], in experiment [5] and in experiment [10] was greater than 100 µM in each case. Moreover, the TGI in experiment [6], in experiment [7], in [8] and in experiment [9] was greater than 100 µM throughout.
Broadly, the GI50 is the concentration at which growth is held to half of that of the control. For `Fc1ccc(C2CC(c3cccc(Nc4ccncc4)c3)=NN2c2ccc(Cl)cc2)cc1` (stereo not given), the GI50 in [1] was 1.91 µM; in [2], 1.74 µM; in [3], 2 µM; in experiment [4], 1.68 µM; in experiment [5], 1.79 µM; in experiment [10], 1.98 µM. Further, the GI50 is 2.11 µM in [7], 1.78 µM in experiment [8] and 1.39 µM in experiment [9]. Also, the TGI in experiment [1] came out at 3.82 µM; in experiment [2], 3.37 µM; in experiment [3], 4.15 µM; in [4] it was 3.33 µM; in experiment [5] it was 4.23 µM; in experiment [10], 4.53 µM. Also, the TGI in experiment [7] is 6.33 µM; in [8] it was 3.37 µM; in experiment [9], 2.71 µM.
On to `CC(=O)OCC1=C(C(=O)O)N2C(=O)C(NC(=O)CSc3ccncc3)C2SC1` (stereo not given), for which the concentration for total growth inhibition (TGI) in experiment [1], in experiment [3], in experiment [4], in experiment [5], in [10] and in experiment [6] was greater than 100 µM each time. Besides, the total growth inhibition concentration (TGI) in experiment [7], in [8] and in [9] was greater than 100 µM each time.
`CC1CCC2(O)C3(C)CC4(O)OC2(C1O)C1(O)C3(O)C(OC(=O)c2ccc[nH]2)C(O)(C(C)C)C41C` (stereo not given): the TGI in [1], in experiment [2], in [3], in experiment [4], in [10] and in experiment [6] was greater than 100 µM each time. In addition, the TGI in experiment [7], in experiment [8] and in experiment [9] was greater than 100 µM in each case.
For the compound `O=C1Nc2ccccc2C1=Nc1cccc2ncccc12`, the TGI in experiment [1] was greater than 100 µM; in experiment [2], greater than 100 µM; in experiment [3] it was greater than 100 µM; in experiment [4], greater than 100 µM; in experiment [5] it was greater than 100 µM; in experiment [10], 99.7 µM. Moreover, the TGI in experiment [6] is greater than 100 µM; in [7], 85.6 µM; in experiment [8], greater than 100 µM; in experiment [9] it was greater than 100 µM.
For the compound `CCOC(=O)NC(Nc1ncccn1)(C(=O)OCC)C(F)(F)F` (stereo not given), the TGI in experiment [1], in experiment [2], in experiment [3], in experiment [4], in experiment [5] and in experiment [7] was greater than 100 µM each time. Moreover, the TGI in [8] and in experiment [9] was greater than 100 µM each time.
For the compound `CC(C)(C)[Si](C)(C)OCC1OC(n2cnc3c(N)ncnc32)CC1O` (stereo not given), the TGI in experiment [1], in experiment [2], in experiment [3], in experiment [4], in experiment [5] and in [10] was greater than 100 µM throughout. The TGI in experiment [6], in experiment [8] and in [9] was greater than 100 µM each time.
For `c1coc(CNc2ncnc3[nH]ncc23)c1`, the TGI in experiment [1], in [2], in experiment [3], in [4], in experiment [5] and in [10] was greater than 100 µM throughout. Further, the TGI in experiment [6], in experiment [7], in experiment [8] and in experiment [9] was greater than 100 µM each time.
Take `N#CN=[N+]([O-])c1ccc(C(=O)O)cc1`: the TGI is 34.1 µM in experiment [1]; 31.4 µM in experiment [2]; 32.7 µM in experiment [3]; greater than 100 µM in [4]; 33 µM in experiment [10]; 30.7 µM in [6]. Besides, the TGI in experiment [7] is 35.8 µM; in experiment [8], greater than 100 µM.
Take `Cc1cc(C)n(-c2nsc3ccccc23)n1`: the TGI in [1], in experiment [2], in experiment [3], in experiment [4], in [5] and in [6] was greater than 100 µM throughout. The TGI in experiment [7] and in [8] was greater than 100 µM in each case.
Take `C/C(N=NS(=O)(=O)c1ccccc1)=C1\C=CC=CN1O`: the TGI in [1], in experiment [2], in [3], in experiment [4], in [5] and in [10] was greater than 100 µM each time. Besides, the TGI in experiment [6], in experiment [7], in experiment [8] and in experiment [9] was greater than 100 µM each time.
In the case of `CSc1nc(NC2OCC(O)C(O)C2O)c(N)c(=O)[nH]1` (stereo not given), the TGI in experiment [1], in experiment [3], in experiment [4], in experiment [10], in [6] and in [7] was greater than 100 µM each time. In experiment [8], the TGI was greater than 100 µM.
On to `NCCCOc1ccc([N+](=O)[O-])cc1Cl`, for which the TGI in experiment [1], in experiment [2], in experiment [3], in experiment [4], in experiment [5] and in experiment [6] was greater than 100 µM throughout. Besides, the concentration for total growth inhibition (TGI) in experiment [8] and in [9] was greater than 100 µM throughout.
With `O=C1NC2=C(CCCC/C2=N\O)C12CCCCC2`, the TGI in experiment [1], in experiment [2], in [3], in [4], in [5] and in experiment [10] was greater than 100 µM each time. Also, the concentration for total growth inhibition (TGI) in experiment [6], in experiment [7] and in experiment [8] was greater than 100 µM in each case.
In the case of `Brc1ccc(C2CC(c3cccc4ccccc34)=Nc3ccccc3S2)cc1` (stereo not given), the TGI in [1], in [2], in experiment [3], in experiment [4], in experiment [5] and in experiment [10] was greater than 100 µM in each case. The TGI in experiment [6], in [7], in experiment [8] and in experiment [9] was greater than 100 µM each time.
With `OCCOCCN1CCN(CCCN2c3ccccc3Sc3ccc(C(F)(F)F)cc32)CC1`, the TGI in [1] worked out at 38.3 µM; in experiment [2], 24.1 µM; in experiment [3], 18.3 µM; in [4], 20.2 µM; in [10] it was 33.7 µM; in experiment [6] it was 33.2 µM. The concentration for total growth inhibition (TGI) in [7] turned out to be 29.2 µM; in experiment [8], 22.2 µM; in experiment [9], 30.5 µM.
For `CCN(CC)CCNc1ccc2nnn3c4ccc(C)cc4c(=O)c1c23`, the TGI came out at 22.4 µM in experiment [1]; 28.8 µM in [2]; 26.5 µM in experiment [3]; 16.9 µM in [4]; 13.1 µM in experiment [5]; 25.8 µM in [10]. Also, the TGI was determined as 28.9 µM in experiment [6], 26.4 µM in [8] and 34.9 µM in experiment [9].
As for `COc1ccc2nc3cc(Cl)ccc3c(NCCNC(=O)Cn3c(=O)n(C)c(=O)c4c3nc3c(c(=O)n(C)c(=O)n3C)[n+]4[O-])c2c1`, the TGI was greater than 100 µM in experiment [1]; greater than 56.1 µM in experiment [2]; greater than 55.9 µM in experiment [3]; greater than 100 µM in [4]; 63.8 µM in [5]; greater than 100 µM in experiment [10]. The TGI in experiment [6] is 50.8 µM; in [7], greater than 100 µM; in experiment [8], 61.6 µM; in experiment [9] it was greater than 100 µM.
